Reference: patent publication US20250129021A1, “SMALL MOLECULE PROTEIN SYNTHESIS MODULATORS” (Interdict Bio, Inc., priority 2023, published 2025)
Read-outs that look alike come from different tables or passages of the source.

Key:
Type in all cases: biochemical
Settings in all cases: HeLa S3 lysate, 2 hrs at 30° C.
CCNTB1 = assay: In vitro transcription-translation (IVTT) assay, CCNTB1 reporter
Protocol: (§1) Each preparation takes 8 cell pellets (4 ml packed volume each, approximately 1.0×10^9 cells per pellet). Thaw cell pellets from −80° C. on ice for 90 mins. Lay pellets horizontally on top of the ice and rotate every 30 mins to ensure even thawing. Once thawed, add 4 mL of cold lysis buffer to each pellet, and using a serological pipet, gently pipet up and down to break up clumps. Incubate resuspended cells in ice for an additional 30 mins (plunged into ice). During 30 min incubation, rinse and RNase-zap (Ambion) glass dounces (use loose pestle “A”), gently dry and place on ice until needed. Prepare RNase-free Eppendorf tubes for spinning and for batch storage. Add batch labels to 1.5-1.7 mL RNase-free microcentrifuge tubes (labeling scheme below). Each batch will have an extra 1.5-1.7 mL RNase-free microcentrifuge tube for 40 μL of lysate, label the top of this tube (labeling scheme below). After 30 min incubation, transfer all 8 mL of cell pellet to dounce. Cell lysis is complete after douncing 100 times. Aliquot cell lysis into 1.5-1.7 mL temporary-microcentrifuge tubes. Place tubes in centrifuge with “fins” out, and spin at 1,200×g for 5 mins. After the first spin use a 1 mL pipet to resuspend each tube and repeat spin. This acts as an additional lysis step, is more vigorous and increases lysate yield. During second spin get liquid N2 and a fresh conical tube on ice. After spin is complete, transfer supernatant (lysate) from microcentrifuge tubes into the 50 mL conical tube and keep on ice. Repeat steps 10-14 for all other cell pellets until completed. Once all cell lysate has been transferred to the 50 mL conical tube pipet to mix so the solution is homogenous. Transfer 1 mL of lysate into batch-labeled microcentrifuge tubes and flash freeze in liquid nitrogen. Be sure to pipet up and down to mix throughout transfer step. Place all tubes in the […] for long-term storage.
In vitro transcription-translation assay setup: Each assay includes a master mix containing lysate and shared components, a 96-well plate containing compound titrations for testing, a 96-well DNA plate with reporter constructs to be tested, 96-well skirted PCR plates, and 96-well flat-bottom, black, fluorescent assay plates. Reaction materials setup: (A) Master mix—15 mL conical tube (3 mL of HeLa S3 Lysate described above; 0.6 mL of ThermoFisher Accessory Proteins (#88882); 1.2 ml of ThermoFisher Reaction Mix (#88882); 0.54 mL of nuclease-free Water); (B) 96-Well Master Mix+Compound Plate (Half-log dilutions (30 μM−0.1 μM) of 4 compounds of interest are prepared in 100% DMSO); 96-Well DNA Plate (Five DNA constructs are plated into single columns within the plate. Row 1 of the column contains nuclease free H2O, all other wells contain 110 ng/μL plasmid DNA). Reactions are started by mixing 155 μL of master mix and 3.5 μL of compound serial dilutions, then 9.1 μL of master mix+compound mixture is aliquoted across 5 96-well plates. Reactions begin with final addition of 2 μL of DNA for a 11.1 μL reaction volume in each well. The entire plate is sealed, and incubated for 2 hrs at 30° C. After 2 hrs, quench the assay using 45 μL of PBS, and transfer 50 μL to a flat-bottom black microplate Quantify the sfGFP and mCherry signals from each well on each plate, taking 3 reads of each plate, and perform data analysis below.
In vitro transcription-translation assay data analysis: Each plate is read three times in channels for both sfGFP and mCherry signals. The average signal across these 3 reads is then calculated for further analysis. Control wells containing no DNA reporter are subtracted from reporter wells in the same column to remove auto-fluorescence of the lysate. Then, the ratio of sfGFP/mCherry is calculated per well, and these ratios are averaged across the triplicate experiments on the same plate. Finally, the ratio of each titration concentration is normalized to the no drug control to create the normalized stalling metric. […]

MYC = assay: In vitro transcription-translation (IVTT) assay, MYC reporter
From the text: (§2) All reporter constructs have been cloned into the pT7CFE1-CHis plasmid (ThermoFisher #88860) using Gibson assembly procedures (NEB #E2611L). The parental pT7CFE1-CHis plasmid contains an EMCV IRES at the 5′UTR for translation initiation, a multiple-cloning site (MCS) for gene insertion, an optional C-terminal His-epitope tag, and polyA sequence in the 3′UTR to regulate mRNA stability. All reporters are designed to be inserted at the MCS to include a red fluorescent protein (mCherry), P2A self-cleaving peptide which releases the preceding mCherry protein product, and a fusion open reading frame containing a 3×FLAG epitope, a peptide sequence of interest (TEST), and green fluorescent protein (sfGFP).
(§3) Construct Plasmid Preparation: All plasmids are isolated from MACH1 cells (ThermoFisher) grown overnight in ampicillin-containing luria broth, and purified using ZymoPure Express Plasmid Midiprep Kit (Zymo Research). Constructs are sequenced verified and diluted to a working concentration of 110 ng/μL.
(§4) HeLa S3 Lysate Preparation: HeLa S3 cell pellets are acquired from Ipracell/Ipratech (Belgium) and shipped as 4 mL frozen cell pellets on dry ice for storage at −80° C. until use. The procedure for lysate preparation is as follows. Prepare 1× Lysis Buffer, cold and stored on ice:
as §1
(§5) In vitro transcription-translation assay setup: Each assay includes a master mix containing lysate and shared components, a 96-well plate containing compound titrations for testing, a 96-well DNA plate with reporter constructs to be tested, 96-well skirted PCR plates, and 96-well flat-bottom, black, fluorescent assay plates. […]

MCL-1 = assay: In vitro transcription-translation (IVTT) assay, MCL-1 reporter
From the text: as §2, §3, §4, §1, §5

CCND1 = assay: In vitro transcription-translation (IVTT) assay, CCND1 reporter
From the text: as §2, §3, §4, §1, §5

[1] = IVTT assay, MYC reporter, normalized sfGFP/mCherry ratio, half-log dilutions 30 μM-0.1 μM

IC50 (CCNTB1)	IC50 (MCL-1; IVTT, read-out: MCL1 IC50)	IC50 (CCND1; IVTT)	IC50 (MYC; sfGFP/mCherry ratio)	IC50 (MCL-1; sfGFP/mCherry ratio)	IC50 (CCND1; sfGFP/mCherry ratio)	Structure (SMILES)	IC50 (MYC; [1])
< 10 µM	< 10 µM	< 10 µM				COc1ccc(C[C@H]2NC[C@H](O)[C@H]2OC(=O)NCc2cccc(C(F)F)c2)cc1 [V191954, (2R,3S,4S)-4-hydroxy-2-[(4-methoxyphenyl)methyl]pyrrolidin-3-yl N-{[3-(difluoromethyl)phenyl]methyl}carbamate]	< 10 µM
< 10 µM	< 10 µM	< 10 µM				COc1ccc(C[C@H]2NC[C@H](O)[C@H]2OC(=O)NCc2cccc(Cl)c2)cc1 [V191904, (2R,3S,4S)-4-hydroxy-2-[(4-methoxyphenyl)methyl]pyrrolidin-3-yl N-[(3-chlorophenyl)methyl]carbamate]	< 10 µM
20 to 30 µM	> 30 µM	> 30 µM				COc1ccc(C[C@H]2NC[C@H](O)[C@H]2OC(=O)NCCc2c(C)noc2C)cc1 [V190414, (2R,3S,4S)-4-hydroxy-2-[(4-methoxyphenyl)methyl]pyrrolidin-3-yl N-[2-(3,5-dimethyl-1,2-oxazol-4-yl)ethyl]carbamate]	> 30 µM
			20 to 30 µM	< 10 µM	< 10 µM	COc1ccc(C[C@H]2NC[C@H](O)[C@H]2OC(=O)NCC(N)=O)cc1 [V188002, (2R,3S,4S)-4-hydroxy-2-[(4-methoxyphenyl)methyl]pyrrolidin-3-yl N-(carbamoylmethyl)carbamate]	
			20 to 30 µM	10 to 20 µM	> 30 µM	COc1ccc(C[C@H]2NC[C@H](O)[C@H]2OC(=O)NC[C@@H]2CNC[C@@H]2O)cc1 [Cmpd V188116]	
			10 to 20 µM	10 to 20 µM	10 to 20 µM	[H]/N=C(\N)CNC(=O)O[C@@H]1[C@@H](O)CN[C@@H]1Cc1ccc(OC)cc1 [Cmpd V187993]	
			10 to 20 µM	< 10 µM	20 to 30 µM	COc1ccc(C[C@H]2NC[C@H](O)[C@H]2OC(=O)NCCn2ccnc2C)cc1 [V188087, (2R,3S,4S)-4-hydroxy-2-[(4-methoxyphenyl)methyl]pyrrolidin-3-yl N-[2-(2-methylimidazol-1-yl)ethyl]carbamate]	

Continued, compound first:

Structure (SMILES)	IC50 (CCNTB1)	IC50 (MCL-1; IVTT, read-out: MCL1 IC50)	IC50 (CCND1; IVTT)	IC50 (MYC; sfGFP/mCherry ratio)	IC50 (MCL-1; sfGFP/mCherry ratio)	IC50 (CCND1; sfGFP/mCherry ratio)	IC50 (MYC; [1])
O=C(NCc1cccc(F)c1)O[C@@H]1[C@@H](O)CN[C@@H]1Cc1ccc(-n2ccnc2)cc1 [V190515, (2R,3S,4S)-4-hydroxy-2-{[4-(imidazol-1-yl)phenyl]methyl}pyrrolidin-3-yl N-[(3-fluorophenyl)methyl]carbamate]	< 10 µM	< 10 µM	< 10 µM				< 10 µM
COc1ccc(C[C@H]2NC[C@H](O)[C@H]2OC(=O)NCC[C@@H]2CCN2)cc1 [V191920, (2R,3S,4S)-4-hydroxy-2-[(4-methoxyphenyl)methyl]pyrrolidin-3-yl N-{2-[(2S)-azetidin-2-yl]ethyl}carbamate]	< 10 µM	< 10 µM	< 10 µM				< 10 µM
COc1ccc(C[C@H]2NC[C@H](O)[C@H]2OC(=O)NCCc2ccc3c(c2)CNC3)cc1 [V188344, (2R,3S,4S)-4-hydroxy-2-[(4-methoxyphenyl)methyl]pyrrolidin-3-yl N-[2-(2,3-dihydro-1H-isoindol-5-yl)ethyl]carbamate]	< 10 µM	< 10 µM	< 10 µM				< 10 µM
COc1ccc(C[C@H]2NC[C@H](O)[C@H]2OC(=O)NCc2ccc(F)cc2)cc1 [V188378, (2R,3S,4S)-4-hydroxy-2-[(4-methoxyphenyl)methyl]pyrrolidin-3-yl N-[(4-fluorophenyl)methyl]carbamate]	< 10 µM	< 10 µM	< 10 µM				< 10 µM
CC(F)(F)c1ccc(C[C@H]2NC[C@H](O)[C@H]2OC(=O)NCc2cccc(F)c2)cc1 [V190547, (2R,3S,4S)-2-{[4-(1,1-difluoroethyl)phenyl]methyl}-4-hydroxypyrrolidin-3-yl N-[(3-fluorophenyl)methyl]carbamate]	< 10 µM	< 10 µM	20 to 30 µM				< 10 µM
COc1ccc(C[C@H]2NC[C@H](O)[C@H]2OC(=O)NCc2ccc(N)nc2)cc1 [V188316, (2R,3S,4S)-4-hydroxy-2-[(4-methoxyphenyl)methyl]pyrrolidin-3-yl N-[(6-aminopyridin-3-yl)methyl]carbamate]	< 10 µM	< 10 µM	< 10 µM				< 10 µM
O=C(NCc1ccccc1)O[C@@H]1[C@@H](O)CN[C@@H]1Cc1ccc(C2CC2)cc1 [V188329, (2R,3S,4S)-2-[(4-cyclopropylphenyl)methyl]-4-hydroxypyrrolidin-3-yl N-benzylcarbamate]	< 10 µM	< 10 µM	< 10 µM				< 10 µM
CC(F)(F)c1ccc(C[C@H]2NC[C@H](O)[C@H]2OC(=O)NCC[C@@H]2CCCN2)cc1 [V191885, (2R,3S,4S)-2-{[4-(1,1-difluoroethyl)phenyl]methyl}-4-hydroxypyrrolidin-3-yl N-{2-[(2S)-pyrrolidin-2-yl]ethyl}carbamate]	< 10 µM	< 10 µM	10 to 20 µM				< 10 µM
COc1ccc(C[C@H]2NC[C@H](O)[C@H]2OC(=O)NCc2cccc3cn[nH]c23)cc1 [V190459, (2R,3S,4S)-4-hydroxy-2-[(4-methoxyphenyl)methyl]pyrrolidin-3-yl N-(1H-indazol-7-ylmethyl)carbamate]	< 10 µM	< 10 µM	10 to 20 µM				< 10 µM
O=C(NCC[C@@H]1CCCN1)O[C@@H]1[C@@H](O)CN[C@@H]1Cc1ccc(-c2ccc(S(F)(F)(F)(F)F)cc2)cc1 [V191968, (2R,3S,4S)-4-hydroxy-2-((4′-(pentafluoro-l6-sulfanyl)-[1,1′-biphenyl]-4-yl)methyl)pyrrolidin-3-yl (2-((S)-pyrrolidin-2-yl)ethyl)carbamate]	> 30 µM						> 30 µM
COc1ccc(C[C@H]2NC[C@H](O)[C@H]2NC(=O)OCc2ccccc2)cc1 [Cmpd V187864]				> 30 µM	> 30 µM	> 30 µM	
COc1ccc(C[C@H]2NC[C@H](O)[C@H]2OC(=O)NCC2CC(F)(F)C2)cc1 [V187862, (2R,3S,4S)-4-hydroxy-2-[(4-methoxyphenyl)methyl]pyrrolidin-3-yl N-[(3,3-difluorocyclobutyl)methyl]carbamate]				< 10 µM	< 10 µM	< 10 µM	
